# Measurements as given in article PMC4568831 (Molecular pharmaceutics, 2015).
# Like-named read-outs stand apart in the source and are kept apart here.
# Legend:
# [1] = Measurement of CFZ in tissues, partition ratios after prolonged oral dosing; format: in vivo, mice (male C57Bl6); details: mice, after eight week washout period
# [2] = cited from earlier work
# [3] = In vitro precipitation / solubilization of CFZ in aqueous media; format: physicochemical; details: ~5 M HCl, diprotonated state
# [4] = humans; cited from earlier work
# [5] = mice; cited from earlier work
smiles,measurement,setting,value
"CC(C)/N=c1\cc2n(-c3ccc(Cl)cc3)c3ccccc3nc-2cc1Nc1ccc(Cl)cc1 [CFZ, Clofazimine]",CFZ mass retained in spleen,[1],exceeded its combined mass retained in the other organs
same,half-life,"[2]; oral, after an acute dose",hours to days
same,half-life,[2]; upon prolonged oral administration,weeks to months
same,pH at which CFZ was completely solubilized in aqueous media,[3],< 1
same,pharmacokinetic half-life t1/2,[4],~ 70 days
same,pharmacokinetic half-life t1/2,[5],170 h
